Values quoted from earlier work, collected in patent publication US20100317640A1, “ANTIMICROBIAL ZINC PYRITHIONE COMPOSITION AND METHOD” (MICROBAN PRODUCTS COMPANY, priority 2009, published 2010).

Conditions: neutral pH

## zinc pyrithione
  solubility in water: 8 ppm
